Here are results for 17 compounds from patent US9120774B2 (University of Kansas, priority 2009, dated 2015).

Where two headings read alike, the source gives them in different places.

One may read the IC50 as the concentration at which inhibition is half-maximal.

Assay type in all cases: cell-based
Test [1] relates to PC-3 (androgen independent prostate cancer cells). The experiment in a line: Anti-proliferation activity against PC-3 cells. The following applies: for IC50: Homo sapiens. The procedure:
(§1) Upon completion of synthesis of library of compounds in Examples 23 and 24, the compounds were evaluated for anti-proliferative activity against SkBr3 (Her2 overexpressing breast cancer cells), MCF-7 (estrogen receptor positive breast cancer cells), HCT-116 (colon cancer cells characterized by wild-type p53), PL45 (pancreatic cancer cells), LNCaP (androgen sensitive prostate cancer cells) and PC-3 (androgen independent prostate cancer cells) cell lines. […] The monosubstituted benzamide variants improved activity.
Cells were maintained in a 1:1 mixture of Advanced DMEM/F12 (Gibco) supplemented with non-essential amino acids, L-glutamine (2 mM), streptomycin (500 ng/mL), penicillin (100 units/mL), and 10% FBS. Cells were grown to confluence in a humidified atmosphere (37° C., 5% CO2), seeded (2000/well, 100 μl) in 96-well plates, and allowed to attach overnight. […] […] Cells incubated in 1% DMSO were used at 100% proliferation, and values were adjusted accordingly. IC50 values were calculated from separate experiments performed in triplicate using GraphPad Prism.

The test system of test [2] is SkBr3 (Her2 overexpressing breast cancer cells). The experiment in a line: Anti-proliferation activity against SkBr3 cells (MTS/PMS). The following applies: Homo sapiens, SK-BR-3. The procedure:
(§2) Upon completion of synthesis of library of compounds in Examples 23 and 24, the compounds were evaluated for anti-proliferative activity against SkBr3 (Her2 overexpressing breast cancer cells), MCF-7 (estrogen receptor positive breast cancer cells), HCT-116 (colon cancer cells characterized by wild-type p53), PL45 (pancreatic cancer cells), LNCaP (androgen sensitive prostate cancer cells) and PC-3 (androgen independent prostate cancer cells) cell lines.
(§3) Cells were maintained in a 1:1 mixture of Advanced DMEM/F12 (Gibco) supplemented with non-essential amino acids, L-glutamine (2 mM), streptomycin (500 ng/mL), penicillin (100 units/mL), and 10% FBS. Cells were grown to confluence in a humidified atmosphere (37° C., 5% CO2), seeded (2000/well, 100 μl) in 96-well plates, and allowed to attach overnight. Compound or GDA at varying concentrations in DMSO (1% DMSO final concentration) was added, and cells were returned to the incubator for 72 hours. At 72 hours, the number of viable cells was determined using an MTS/PMS cell proliferation kit (Promega) per the manufacturer's instructions. Cells incubated in 1% DMSO were used at 100% proliferation, and values were adjusted accordingly. IC50 values were calculated from separate experiments performed in triplicate using GraphPad Prism.
as §3, with “μg/mL),” for “ng/mL),”, “μL)” for “μl)”

Test [3] concerns LNCaP (androgen sensitive prostate cancer cells). The test can be described thus: Anti-proliferation activity against LNCaP cells. The following applies: for IC50: Homo sapiens, LNCaP, Table 6, 72 hours, MTS/PMS, mean ± standard deviation, read-out: IC50 LnCaP. The procedure:
as §1, §3

In test [4] the test system is MCF-7 (estrogen receptor positive breast cancer cells). The test can be described thus: Anti-proliferation activity against MCF-7 cells (MTS/PMS). The following applies: for IC50: Homo sapiens, MCF7. The procedure:
as §2, §3
as §3, with “μg/mL),” for “ng/mL),”, “μL)” for “μl)”

[5] abbreviates: Table 6, 72 hours, MTS/PMS, mean ± standard deviation, read-out: IC50 SKBr3.
The mark [6] stands for this setting: PC-3, Table 6, 72 hours, MTS/PMS, mean ± standard deviation, read-out: IC50 PC-3.
[7] abbreviates: Table 6, 72 hours, MTS/PMS, mean ± standard deviation, read-out: IC50 MCF-7.
The mark [8] stands for this setting: Table 21, substituted indole-2-carboxamide analogues with noviose replacements, read-out: IC50, SKBr3.
Setting [9] is: Table 21, substituted indole-2-carboxamide analogues with noviose replacements, read-out: IC50, MCF-7.
Where [10] appears, read: Table 19, 7-oxyalkylamino and 7-oxypiperidinyl analogues, read-out: IC50, SKBr3.
The mark [11] stands for this setting: Table 19, 7-oxyalkylamino and 7-oxypiperidinyl analogues, read-out: IC50, MCF-7.

In the case of `COc1cccc(-c2cc(C(=O)Nc3cc4ccc(OCc5cccnc5)c(C)c4oc3=O)ccc2OC)c1` [3′,6-dimethoxy-N-(8-methyl-2-oxo-7-(pyridin-3-ylmethoxy)-2H-chromen-3-yl)-[1,1′-biphenyl]-3-carboxamide], the half-maximal inhibitory concentration (IC50) in test [1] (PC-3, 24 hr., read-out: IC50) is 3.8 µM.

For `COc1cccc(-c2cc(C(=O)Nc3cc4cc(OC)c(O[C@@H]5OC(C)(C)[C@H](OC)[C@@H](O)[C@H]5O)c(C)c4oc3=O)ccc2OC)c1` [26a, N-(7-((2S,3R,4S,5R)-3,4-dihydroxy-5-methoxy-6,6-dimethyltetrahydro-2H-pyran-2-yloxy)-6-methoxy-8-methyl-2-oxo-2H-chromen-3-yl)-3′,6-dimethoxybiphenyl-3-carboxamide], the IC50 in test [2] (setting [5]) is 58.8 ± 1.3 µM; in test [3], 6.6 µM; in test [1] (setting [6]), 35.4 µM; in test [4] (setting [7]), > 100 µM. Moreover, in test [1] (PC-3 cells), the “fold increase in anti-proliferation activity versus the 6-H derivative” value came out at 2 fold.

On to `CCCOc1cc2cc(NC(=O)c3ccc(OC)c(-c4cccc(OC)c4)c3)c(=O)oc2c(C)c1O[C@@H]1OC(C)(C)[C@H](OC)[C@@H](O)[C@H]1O` [26b, N-(7-((2S,3R,4S,5R)-3,4-dihydroxy-5-methoxy-6,6-dimethyltetrahydro-2H-pyran-2-yloxy)-8-methyl-2-oxo-6-propoxy-2H-chromen-3-yl)-3′,6-dimethoxybiphenyl-3-carboxamide], for which the 50% inhibitory concentration (IC50) was > 100 µM in test [2] (setting [5]), 3 ± 0.6 µM in test [3], 5.6 ± 5.7 µM in test [1] (setting [6]) and > 100 µM in test [4] (setting [7]). Moreover, in test [1] (PC-3 cells), the “fold increase in anti-proliferation activity versus the 6-H derivative” value is on record as 10 fold.

Consider `COc1cccc(-c2cc(C(=O)Nc3cc4cc(OC(C)C)c(O[C@@H]5OC(C)(C)[C@H](OC)[C@@H](O)[C@H]5O)c(C)c4oc3=O)ccc2OC)c1` [26c, N-(7-((2S,3R,4S,5R)-3,4-dihydroxy-5-methoxy-6,6-dimethyltetrahydro-2H-pyran-2-yloxy)-6-isopropoxy-8-methyl-2-oxo-2H-chromen-3-yl)-3′,6-dimethoxybiphenyl-3-carboxamide], for which the IC50 in test [2] (setting [5]) was found to be 58.6 ± 5.4 µM; in test [3] it was 14.4 ± 4.2 µM; in test [1] (setting [6]), 60.7 ± 9.1 µM; in test [4] (setting [7]), 66.9 ± 3.1 µM. The “times less active than the corresponding 6-H” value in test [3] (LnCaP cells) is on record as ~7 times.

Turning to `COc1cccc(-c2cc(C(=O)Nc3cc4ccc(O[C@@H]5OC(C)(C)[C@H](OC)[C@@H](O)[C@H]5O)c(Cc5ccccc5)c4oc3=O)ccc2OC)c1` [26e, N-(8-benzyl-7-((2R,3R,4S,5R)-3,4-dihydroxy-5-methoxy-6,6-dimethyltetrahydro-2H-pyran-2-yloxy)-2-oxo-2H-chromen-3-yl)-3′,6-dimethoxybiphenyl-3-carboxamide], the IC50 in test [2] (setting [5]) was > 100 µM; in test [3], 49.7 ± 25 µM; in test [1] (setting [6]), > 100 µM; in test [4] (setting [7]), > 100 µM.

Consider `COc1cccc(-c2cc(C(=O)Nc3cc4ccc(O[C@@H]5OC(C)(C)[C@H](OC)[C@@H](O)[C@H]5O)c(-c5ccccc5)c4oc3=O)ccc2OC)c1` [26f, N-(7-((2R,3R,4S,5R)-3,4-dihydroxy-5-methoxy-6,6-dimethyltetrahydro-2H-pyran-2-yloxy)-2-oxo-8-phenyl-2H-chromen-3-yl)-3′,6-dimethoxybiphenyl-3-carboxamide], for which the half-maximal inhibitory concentration (IC50) was 17.3 ± 3.4 µM in test [2] (setting [5]), 1 ± 0.1 µM in test [3], > 100 µM in test [1] (setting [6]) and > 100 µM in test [4] (setting [7]).

Take `CCc1c(O[C@@H]2OC(C)(C)[C@H](OC)[C@@H](O)[C@H]2O)ccc2cc(NC(=O)c3ccc(OC)c(-c4cccc(OC)c4)c3)c(=O)oc12` [26h, N-(7-((2R,3R,4S,5R)-3,4-dihydroxy-5-methoxy-6,6-dimethyltetrahydro-2H-pyran-2-yloxy)-8-ethyl-2-oxo-2H-chromen-3-yl)-3′,6-dimethoxybiphenyl-3-carboxamide]: the half-maximal inhibitory concentration (IC50) turned out to be 28.6 ± 1.1 µM in test [2] (setting [5]), 1.6 ± 0.3 µM in test [3], 1.8 ± 0.6 µM in test [1] (setting [6]) and 41.7 ± 14 µM in test [4] (setting [7]). The “fold increased activity versus the 8-methyl derivative” value in test [1] (PC-3 cells) came to 10 fold.

With `COc1cc2cc(NC(=O)c3cc4ccccc4[nH]3)c(=O)oc2c(C)c1O[C@@H]1OC(C)(C)[C@H](OC)[C@@H](O)[C@H]1O` [26i, N-(7-((2S,3R,4S,5R)-3,4-dihydroxy-5-methoxy-6,6-dimethyltetrahydro-2H-pyran-2-yloxy)-6-methoxy-8-methyl-2-oxo-2H-chromen-3-yl)-1H-indole-2-carboxamide], the IC50 is 25.1 ± 7.7 µM in test [2] (setting [5]), 10.5 ± 0.3 µM in test [3], 20.2 ± 9.8 µM in test [1] (setting [6]) and 24.4 ± 1.2 µM in test [4] (setting [7]).

Turning to `CCCOc1cc2cc(NC(=O)c3cc4ccccc4[nH]3)c(=O)oc2c(C)c1O[C@@H]1OC(C)(C)[C@H](OC)[C@@H](O)[C@H]1O` [26j, N-(7-((2S,3R,4S,5R)-3,4-dihydroxy-5-methoxy-6,6-dimethyltetrahydro-2H-pyran-2-yloxy)-8-methyl-2-oxo-6-propoxy-2H-chromen-3-yl)-1H-indole-2-carboxamide], the IC50 in test [2] (setting [5]) amounted to 2.1 ± 0.8 µM; in test [3], 1.8 ± 0.7 µM; in test [1] (setting [6]), 6.2 ± 1.8 µM; in test [4] (setting [7]), 2.1 ± 0.1 µM.

As for `CO[C@@H]1[C@@H](O)[C@@H](O)[C@H](Oc2c(OC(C)C)cc3cc(NC(=O)c4cc5ccccc5[nH]4)c(=O)oc3c2C)OC1(C)C` [26k, N-(7-((2S,3R,4S,5R)-3,4-dihydroxy-5-methoxy-6,6-dimethyltetrahydro-2H-pyran-2-yloxy)-6-isopropoxy-8-methyl-2-oxo-2H-chromen-3-yl)-1H-indole-2-carboxamide], the IC50 was 20.7 ± 0.4 µM in test [2] (setting [5]), 11.4 µM in test [3], 11.9 µM in test [1] (setting [6]) and 20 ± 1 µM in test [4] (setting [7]).

Consider `CO[C@@H]1[C@@H](O)[C@@H](O)[C@H](Oc2ccc3cc(NC(=O)c4cc5ccccc5[nH]4)c(=O)oc3c2-c2ccccc2)OC1(C)C` [26n, N-(7-((2R,3R,4S,5R)-3,4-dihydroxy-5-methoxy-6,6-dimethyltetrahydro-2H-pyran-2-yloxy)-2-oxo-8-phenyl-2H-chromen-3-yl)-1H-indole-2-carboxamide], for which the IC50 in test [2] (setting [5]) was found to be 38.8 ± 8.3 µM; in test [3], 27.6 ± 10.8 µM; in test [1] (setting [6]), 28 ± 12.1 µM; in test [4] (setting [7]), 22.9 ± 2.1 µM. In addition, in test [4] (MCF-7 cells), the “fold less active than the 8-methyl derivative” value was determined as 40 fold.

For `COc1cc2cc(NC(=O)c3cc4cc(Cl)ccc4[nH]3)c(=O)oc2c(C)c1OC1CCN(C)CC1` [KU-386], the IC50 in test [2] (setting [8]) is 0.51 ± 0.11 µM; in test [4] (setting [9]), 4.95 ± 0.45 µM.

With `COc1cc2cc(NC(=O)c3cc4cc(Cl)ccc4[nH]3)c(=O)oc2c(C)c1OCCCN(C)C` [KU-395], the values for the IC50 in test [2] (setting [8]) and in test [4] (setting [9]) were 0.5 ± 0.01 µM and 1.54 ± 0.15 µM, respectively.

Turning to `CC(C)=CCc1cc(C(=O)Nc2cc3ccc(OC4CCN(C)CC4)c(C)c3oc2=O)ccc1OCCN(C)C` [KU-456], the half-maximal inhibitory concentration (IC50) in test [2] (setting [10]) is 0.51 µM; in test [4] (setting [11]) it was 0.023 µM.

For `CC(C)=CCc1cc(C(=O)Nc2cc3ccc(OC4CCN(C)CC4)c(C)c3oc2=O)ccc1OCCCN(C)C` [KU-457], the values for the concentration for half-maximal inhibition (IC50) in test [2] (setting [10]) and in test [4] (setting [11]) were 0.35 ± 0.08 µM and 0.09 µM, respectively.

In the case of `CC(C)=CCc1cc(C(=O)Nc2cc3ccc(OC4CCN(C)CC4)c(C)c3oc2=O)ccc1OC1CCN(C)CC1` [KU-458], the half-inhibitory concentration (IC50) in test [2] (setting [10]) stood at 0.095 µM; in test [4] (setting [11]), 0.15 µM.

In the case of `COc1c(OC2CCN(C)CC2)ccc2cc(NC(=O)c3ccc(OCCN(C)C)c(CC=C(C)C)c3)c(=O)oc12` [KU-459], the IC50 in test [2] (setting [10]) came to 0.29 µM; in test [4] (setting [11]) it was 0.09 µM.
